The record followed here is patent publication US5143929A, “2-substituted thiazolidinone, oxazolidinone, and imidazolidinone derivatives of fenamates as antiinflammatory agents” (Warner-Lambert Company, priority 1991, dated 1992).

Read-outs that look alike come from different tables or passages of the source. A value given as a limit tells only on which side of the number the result lay.

For one assay, the target named is T1, 5-lipoxygenase (Rattus norvegicus, UniProt P12527).
T1 construct: host or cells: RBL-1 (rat basophilic leukemia)
T1 sequence (P12527 1-673): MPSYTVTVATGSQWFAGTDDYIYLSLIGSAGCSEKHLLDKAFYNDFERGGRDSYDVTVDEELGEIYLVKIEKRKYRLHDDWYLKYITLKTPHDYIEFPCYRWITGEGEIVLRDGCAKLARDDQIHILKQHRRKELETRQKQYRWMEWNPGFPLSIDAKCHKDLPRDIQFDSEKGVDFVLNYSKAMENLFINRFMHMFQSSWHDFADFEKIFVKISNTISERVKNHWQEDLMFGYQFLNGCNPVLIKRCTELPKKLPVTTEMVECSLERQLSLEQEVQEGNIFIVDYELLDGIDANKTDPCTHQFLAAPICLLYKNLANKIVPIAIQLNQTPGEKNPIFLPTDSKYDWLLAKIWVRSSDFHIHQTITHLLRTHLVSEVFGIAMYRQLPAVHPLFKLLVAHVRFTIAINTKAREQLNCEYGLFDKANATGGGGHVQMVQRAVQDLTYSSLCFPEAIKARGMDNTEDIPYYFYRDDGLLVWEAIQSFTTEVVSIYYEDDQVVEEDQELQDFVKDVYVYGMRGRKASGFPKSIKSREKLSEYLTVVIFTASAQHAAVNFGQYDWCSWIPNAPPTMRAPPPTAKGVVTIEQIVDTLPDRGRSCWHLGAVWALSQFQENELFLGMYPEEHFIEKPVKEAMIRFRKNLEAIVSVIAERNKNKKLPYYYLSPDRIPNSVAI
Put plainly: ARBL whole cell 5-lipoxygenase assay (inhibition of LTB4 formation in RBL-1 cells). In kind it is cell-based. The conditions noted are these: for IC50: A23187 stimulated, read-out: ARBL: IC50 (50% inhibition of LTB4 formation). As to the method: (§1) The rat basophilic leukemia cell line (RBL-1) was obtained from the American Type Culture Collection (Rockville, Md.).
(§2) Radioimmunoassay (RIA) kits of LTB4 and PGF2α were obtained from Amersham (Arlington Heights, Ill.) and Seragen (Boston, Mass.), respectively.
(§3) All tissue culture media were obtained from GIBCO (Grand Island, N.Y.).
(§4) RBL-1 cells are grown in suspension culture in Eagles minimum essential medium supplemental with 12% fetal bovine serum at 37° C. in an incubator supplied with air--5% carbon dioxide. Cells are harvested by centrifugation. They are washed with cold phosphate-buffered saline, pH 7.4 (PBS; NaCl, 7.1 g; Na2 HPO4, 1.15 g; KH2 PO4, 0.2 g; and KCl, 0.2 g/L). Cells are incubated with and without test agent (in DMSO) (1% DMSO is without effect on arachidonic acid metabolism) for 10 minutes at room temperature. Calcium ionophore A23187 (5 μM) is added and cells are incubated for 7 minutes at 37° C. The reaction is stopped by chilling the tubes on ice for 10 minutes. Cells are finally suspended in PBS containing 1.0 mM calcium at a density of 2×10^6 cells/mL. Cells are separated by centrifugation and the supernatant is stored at -20° C. Aliquots (100 μL) are analyzed for LTB4 and PGF2α using radioimmunoassay kits as provided by the supplier.
(§5) Table 1 contains biochemical data for compounds of formula I obtained from this whole cell assay as IC50 s which are calculated as the concentration of a test compound in micromoles (μM) causing 50% inhibition of LTB4 or PGF2α formation.

The next assay addresses T2, cyclooxygenase (Rattus norvegicus, UniProt Q63921).
T2 construct: host or cells: RBL-1 (rat basophilic leukemia)
T2 sequence (Q63921 27-602): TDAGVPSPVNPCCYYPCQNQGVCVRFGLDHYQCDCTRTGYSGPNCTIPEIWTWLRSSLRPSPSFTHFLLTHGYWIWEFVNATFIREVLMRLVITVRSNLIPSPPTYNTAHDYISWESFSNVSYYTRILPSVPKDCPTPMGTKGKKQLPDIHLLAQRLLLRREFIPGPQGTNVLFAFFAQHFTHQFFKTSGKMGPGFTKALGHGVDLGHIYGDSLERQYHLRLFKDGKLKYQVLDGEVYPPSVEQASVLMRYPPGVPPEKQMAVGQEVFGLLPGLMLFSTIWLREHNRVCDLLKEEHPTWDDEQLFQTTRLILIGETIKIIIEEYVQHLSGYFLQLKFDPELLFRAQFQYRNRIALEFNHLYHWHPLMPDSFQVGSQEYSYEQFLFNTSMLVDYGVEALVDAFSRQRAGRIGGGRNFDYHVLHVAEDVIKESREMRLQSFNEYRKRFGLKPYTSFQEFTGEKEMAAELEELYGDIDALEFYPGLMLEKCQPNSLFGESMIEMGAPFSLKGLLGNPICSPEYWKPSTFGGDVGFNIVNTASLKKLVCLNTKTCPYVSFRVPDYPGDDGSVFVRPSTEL
In words: ARBC whole cell cyclooxygenase assay (inhibition of PGF2α formation in RBL-1 cells). Type of assay: cell-based. Particulars: for IC50: A23187 stimulated, Table 2 (formula II), read-out: ARBC: IC50 (50% inhibition of PGF2α formation). The protocol:
as §1, §2, §3, §4, §5

Setting [1] is: read-out: ARBL: % inhibition of LTB4 at 10 μM, 10 μM, A23187 stimulated, Table 2 (formula II).
Where [2] appears, read: read-out: ARBC: % inhibition of PGF2α at 10 μM, 10 μM, A23187 stimulated, Table 2 (formula II).
[3] abbreviates: read-out: ARBL: % inhibition of LTB4 at 10 μM, 10 μM, A23187 stimulated, Table 1 (formula I).
The mark [4] stands for this setting: read-out: ARBC: % inhibition of PGF2α at 10 μM, 10 μM, A23187 stimulated, Table 1 (formula I).

Consider `Cc1ccc(Cl)c(Nc2ccccc2/C=C2\SC(=S)NC2=O)c1Cl` [Example 1, (Z)-5-[[2-[(2,6-Dichloro-3-methylphenyl)amino]phenyl]methylene]-2-thioxo-4-thiazolidinone], for which the results for the IC50 on 5-lipoxygenase (Table 2 (formula II)) and on cyclooxygenase were 820 nM and 5960 nM, respectively.
As for `O=C1NC(=S)S/C1=C\c1ccccc1Nc1cccc(C(F)(F)F)c1` [Example 2, (Z)-2-Thioxo-5-[[2-[[3-(trifluoromethyl)phenyl]amino]phenyl]methylene]-4-thiazolidinone], the inhibition at 10 µM at 5-lipoxygenase (setting [1]) and on cyclooxygenase (setting [2]) was < 40% each time.
As to `Cc1ccc(Cl)c(Nc2ccccc2/C=C2\SC(=S)N(C)C2=O)c1Cl` [Example 3, (Z)-5-[[2-[(2,6-Dichloro-3-methylphenyl)amino]phenyl]methylene]-3-methyl-2-thioxo-4-thiazolidinone], the inhibition at 10 µM at 5-lipoxygenase (setting [3]) was 100%; on cyclooxygenase (setting [4]) it was < 40%.
Regarding `CN1C(=O)/C(=C/c2ccccc2Nc2cccc(C(F)(F)F)c2)SC1=S` [Example 4], the inhibition at 10 µM at 5-lipoxygenase (setting [3]) and at cyclooxygenase (setting [4]) was < 40% each time.
In the case of `Cc1ccc(Cl)c(Nc2ccccc2/C=C2\SC(=N)NC2=O)c1Cl` [Example 5, (Z)-5-[[2-[(2,6-Dichloro-3-methylphenyl)amino]phenyl]methylene]-2-imino-4-thiazolidinone], the inhibition at 10 µM on 5-lipoxygenase (setting [1]) and at cyclooxygenase (setting [2]) was < 40% throughout.
Turning to `CSC1=NC(=O)/C(=C/c2ccccc2Nc2c(Cl)ccc(C)c2Cl)S1` [Example 6, (Z)-5-[[2-[(2,6-Dichloro-3-methylphenyl)amino]phenyl]methylene]-2-(methylthio)-4(5H)-thiazolone], the values for the inhibition at 10 µM on 5-lipoxygenase (setting [1]) and at cyclooxygenase (setting [2]) were 100% and < 40%, respectively.
On to `Cc1ccc(Cl)c(Nc2ccccc2/C=C2\SC(=O)NC2=O)c1Cl` [Example 7, (Z)-5-[[2-[(2,6-Dichloro-3-methylphenyl)amino]phenyl]methylene]-2,4-thiazolidinedinone], for which the inhibition at 10 µM on 5-lipoxygenase (setting [1]) is 55%; at cyclooxygenase (setting [2]), < 40%.
Regarding `Cc1ccc(Cl)c(Nc2ccccc2/C=C2\SC(NC#N)=NC2=O)c1Cl` [Example 8], the figures for the IC50 at 5-lipoxygenase (Table 2 (formula II)) and at cyclooxygenase were 1480 nM and 10200 nM, respectively.
Consider `O=C1NC(=O)/C(=C/c2ccccc2Nc2cccc(C(F)(F)F)c2)S1` [Example 9, (Z)-5-[[2-[[3-(Trifluoromethyl)phenyl]amino]phenyl]methylene]-2,4-thiazolidinedione], for which the inhibition at 10 µM at 5-lipoxygenase (setting [1]) and on cyclooxygenase (setting [2]) was < 40% each time.
For the compound `Cc1ccc(Cl)c(Nc2ccccc2/C=C2\SC(=S)N(CC(=O)O)C2=O)c1Cl` [Example 10, (Z)-5-[[2-[[2-Dichloro-3-methylphenyl)-amino]phenyl]methylene]-4-oxo-2-thioxo-3-thiazolidine acetic acid], the concentration for half-maximal inhibition (IC50) on 5-lipoxygenase (Table 1 (formula I)) was found to be 2180 nM. In addition, on cyclooxygenase (setting [4]), the inhibition at 10 µM was < 40%.
With `CC(C)(C)c1cc(Nc2ccccc2/C=C2\SC(=S)NC2=O)cc(C(C)(C)C)c1O` [Example 12], the half-maximal inhibitory concentration (IC50) on 5-lipoxygenase (Table 2 (formula II)) turned out to be 1470 nM; at cyclooxygenase it was 2250 nM.

By IC50 is commonly meant the point on the concentration scale where inhibition reaches its midpoint. Usually inhibition stands for the change of the read-out against control, counted positive when it falls.
